For orientation: DC50 means the concentration at which degradation of the target reaches its halfway point. In general, Dmax refers to the greatest extent of degradation seen.

The source of these data is patent US12448389B2, “BRM targeting compounds and associated methods of use” (Prelude Therapeutics Incorporated, priority 2020, dated 2025).

The target of one assay is T1, SMARCA2-HiBiT (Homo sapiens, UniProt P51531).
T1 construct: SMARCA2-HiBiT knock-in Hela monoclonal cell (CS302366); host or cells: HeLa monoclonal knock-in line (CRISPR HiBiT knock-in at the endogenous locus, heterozygous)
T1 sequence (P51531 whole entry): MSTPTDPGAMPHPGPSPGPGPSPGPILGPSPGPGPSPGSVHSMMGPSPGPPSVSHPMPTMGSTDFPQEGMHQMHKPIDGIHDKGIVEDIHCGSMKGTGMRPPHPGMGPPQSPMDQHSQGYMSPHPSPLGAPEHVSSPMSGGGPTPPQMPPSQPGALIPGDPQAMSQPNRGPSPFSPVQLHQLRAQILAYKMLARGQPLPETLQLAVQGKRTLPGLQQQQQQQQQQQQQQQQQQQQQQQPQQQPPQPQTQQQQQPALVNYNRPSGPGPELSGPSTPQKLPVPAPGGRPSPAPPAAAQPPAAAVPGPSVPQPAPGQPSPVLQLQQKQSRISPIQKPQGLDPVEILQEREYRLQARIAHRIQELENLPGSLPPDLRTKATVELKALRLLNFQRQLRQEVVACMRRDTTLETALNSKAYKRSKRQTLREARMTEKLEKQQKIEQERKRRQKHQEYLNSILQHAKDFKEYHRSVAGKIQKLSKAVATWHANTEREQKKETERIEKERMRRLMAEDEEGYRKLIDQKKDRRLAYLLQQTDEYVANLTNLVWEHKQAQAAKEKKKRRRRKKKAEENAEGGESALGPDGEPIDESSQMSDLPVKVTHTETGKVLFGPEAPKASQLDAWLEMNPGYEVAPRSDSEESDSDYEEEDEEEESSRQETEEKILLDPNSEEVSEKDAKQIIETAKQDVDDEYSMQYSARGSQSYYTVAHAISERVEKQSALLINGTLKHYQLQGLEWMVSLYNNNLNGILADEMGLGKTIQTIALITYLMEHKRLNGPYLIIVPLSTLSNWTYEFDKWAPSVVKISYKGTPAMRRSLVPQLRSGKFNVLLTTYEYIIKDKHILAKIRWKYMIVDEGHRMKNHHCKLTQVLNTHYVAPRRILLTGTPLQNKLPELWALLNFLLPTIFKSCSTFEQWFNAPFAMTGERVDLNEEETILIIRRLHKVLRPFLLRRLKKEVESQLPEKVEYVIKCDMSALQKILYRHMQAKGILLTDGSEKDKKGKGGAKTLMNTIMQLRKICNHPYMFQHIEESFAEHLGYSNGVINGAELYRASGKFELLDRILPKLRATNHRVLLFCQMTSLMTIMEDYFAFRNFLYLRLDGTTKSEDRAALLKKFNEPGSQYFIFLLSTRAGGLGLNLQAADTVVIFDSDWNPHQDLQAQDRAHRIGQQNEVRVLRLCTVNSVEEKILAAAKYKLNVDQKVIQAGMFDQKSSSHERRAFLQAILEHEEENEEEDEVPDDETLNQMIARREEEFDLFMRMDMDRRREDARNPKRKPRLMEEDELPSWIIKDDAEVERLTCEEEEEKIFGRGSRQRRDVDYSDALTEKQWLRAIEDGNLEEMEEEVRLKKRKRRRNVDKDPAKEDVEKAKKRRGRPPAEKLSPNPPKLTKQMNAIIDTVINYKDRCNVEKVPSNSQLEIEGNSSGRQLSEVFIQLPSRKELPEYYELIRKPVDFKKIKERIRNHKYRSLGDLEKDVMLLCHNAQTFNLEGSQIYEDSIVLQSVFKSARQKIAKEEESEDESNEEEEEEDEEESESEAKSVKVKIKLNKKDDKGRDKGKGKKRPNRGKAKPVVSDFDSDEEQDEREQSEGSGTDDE
In words: SMARCA2 HiBiT degradation assay in HeLa cells. The settings on record: 18 hours incubation; for DC50: read-out: HeLa_HiBit-SM2 DC50; for Dmax: HeLa, read-out: HeLa-HiBit-SM2 Dmax (%). The class given is cell-based. On the procedure:
(§1) HiBiT peptide knock-in of SMARCA2 in LgBiT expressing HEK293T cells was performed by CRISPR-mediated tagging system as described Promega. The homozygous HiBiT knock-in on c-terminus SMARCA2 was confirmed by sanger sequence. SMARCA2-HiBiT knock-in Hela monoclonal cell (CS302366) and SMARCA4-HiBiT knock-in Hela monoclonal cell (CS3023226) were purchased from Promega. The heterozygous HiBiT-knock-in was confirmed by sanger sequence in both SMARCA2-HiBiT and SMARCA4-HiBiT monoclonal cells.
(§2) SMARCA2 HiBiT and SMARCA4 HiBiT Degradation Assay in HeLa Cells
(§3) Dispense 10 ul aliquot of prepared Hela-SMARCA2-HiBiT or Hela-SMARCA4-HiBiT cells (1:1 ratio of cells:Trypan Blue (#1450013, Bio-Rad)) onto cell counting slide (#145-0011, Bio-Rad) and obtain cell density and cell viability using cell counter (TC20, Bio-Rad). Remove appropriate volume of resuspended cells from culture flask to accommodate 2500 cells/well @20 μL/well. Transfer Hela-HiBiT cells to 50 mL conical (#430290, Corning). Spin down at 1000 rpm for 5 min using tabletop centrifuge (SPINCHRON 15, Beckman). Discard supernatant and resuspend cell pellet in modified EMEM (#30-2003, ATCC) cell culture media containing 10% FBS (F2422-500ML, Sigma), and 1×Penicillin/Streptomycin (200 g/L) (30-002-CI, Corning) to a cell density of 125,000 cells/mL. Dispense 20 μL of resuspended Hela-HiBit cells per well in 384-well TC treated plate (#12-565-343, Thermo Scientific) using standard cassette (#50950372, Thermo Scientific) on Multidrop Combi (#5840310, Thermo Scientific) inside laminar flow cabinet. Dispense test compounds onto plates using digital liquid dispenser (D300E, Tecan). Incubate plates in humidified tissue culture incubator @37° C. for 18 hours. Add 20 μL of prepared Nano-Glo® HiBiT Lytic detection buffer (N3050, Promega) to each well of 384-well plate using small tube cassette (#24073295, Thermo Scientific) on Multidrop Combi, incubate @RT for 30-60 min. Read plates on microplate reader (Envision 2105, PerkinElmer) using 384 well Ultra-Sensitive luminescence mode. Raw data files and compound information reports are swept into centralized data lake and deconvoluted using automated scripts designed by TetraScience, Inc. Data analysis, curve-fitting and reporting done in Dotmatics Informatics Suite using Screening Ultra module.
In general terms: The HiBiT peptide binds its large partner to form an active luciferase.

The target of a further assay is T2, SMARCA4-HiBiT (Homo sapiens, UniProt P51532).
T2 construct: SMARCA4-HiBiT knock-in Hela monoclonal cell (CS3023226); host or cells: HeLa monoclonal knock-in line (CRISPR HiBiT knock-in at the endogenous locus, heterozygous)
T2 sequence (P51532 whole entry): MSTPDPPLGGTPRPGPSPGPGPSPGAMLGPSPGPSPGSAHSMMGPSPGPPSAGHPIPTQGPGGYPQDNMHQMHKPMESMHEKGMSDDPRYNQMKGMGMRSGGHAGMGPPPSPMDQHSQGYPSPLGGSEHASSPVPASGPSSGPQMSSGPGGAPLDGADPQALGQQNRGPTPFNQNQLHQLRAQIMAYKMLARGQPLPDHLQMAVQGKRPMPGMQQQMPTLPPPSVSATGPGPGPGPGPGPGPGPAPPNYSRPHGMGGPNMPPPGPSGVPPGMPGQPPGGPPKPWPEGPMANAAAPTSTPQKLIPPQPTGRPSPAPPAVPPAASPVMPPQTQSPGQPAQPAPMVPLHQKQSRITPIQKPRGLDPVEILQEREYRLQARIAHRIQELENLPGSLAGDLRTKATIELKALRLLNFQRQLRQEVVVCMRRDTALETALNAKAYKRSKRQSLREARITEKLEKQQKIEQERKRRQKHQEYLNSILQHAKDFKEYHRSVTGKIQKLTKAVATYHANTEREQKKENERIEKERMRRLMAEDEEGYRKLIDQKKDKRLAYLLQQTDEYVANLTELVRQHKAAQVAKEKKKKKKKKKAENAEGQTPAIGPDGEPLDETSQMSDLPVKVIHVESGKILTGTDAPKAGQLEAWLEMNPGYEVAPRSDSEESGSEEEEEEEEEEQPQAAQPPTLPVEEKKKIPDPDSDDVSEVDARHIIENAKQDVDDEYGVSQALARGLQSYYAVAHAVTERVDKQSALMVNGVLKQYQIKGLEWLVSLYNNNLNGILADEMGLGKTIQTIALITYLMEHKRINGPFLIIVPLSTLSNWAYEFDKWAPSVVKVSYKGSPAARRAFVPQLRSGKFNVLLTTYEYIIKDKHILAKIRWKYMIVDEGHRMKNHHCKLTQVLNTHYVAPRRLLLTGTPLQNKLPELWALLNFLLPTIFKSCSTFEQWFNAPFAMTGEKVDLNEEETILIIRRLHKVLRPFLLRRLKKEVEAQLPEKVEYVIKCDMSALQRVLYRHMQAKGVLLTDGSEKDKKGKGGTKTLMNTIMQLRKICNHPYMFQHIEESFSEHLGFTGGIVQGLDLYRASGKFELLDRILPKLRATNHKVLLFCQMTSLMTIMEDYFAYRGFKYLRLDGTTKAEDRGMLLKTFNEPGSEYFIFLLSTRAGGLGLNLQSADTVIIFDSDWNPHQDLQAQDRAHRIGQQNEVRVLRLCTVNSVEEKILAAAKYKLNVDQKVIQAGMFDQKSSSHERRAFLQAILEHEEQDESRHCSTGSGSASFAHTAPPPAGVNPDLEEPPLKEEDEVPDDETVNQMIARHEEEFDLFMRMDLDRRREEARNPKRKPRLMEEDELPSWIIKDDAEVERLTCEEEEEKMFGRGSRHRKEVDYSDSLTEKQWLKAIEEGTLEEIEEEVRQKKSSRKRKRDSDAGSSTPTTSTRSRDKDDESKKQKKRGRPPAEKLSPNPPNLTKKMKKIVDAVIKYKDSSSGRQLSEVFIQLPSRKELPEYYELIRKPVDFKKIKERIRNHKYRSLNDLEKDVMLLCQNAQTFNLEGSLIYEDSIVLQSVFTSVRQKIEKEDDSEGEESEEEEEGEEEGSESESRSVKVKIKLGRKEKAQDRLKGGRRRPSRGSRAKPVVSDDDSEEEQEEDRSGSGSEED
As to the kind of experiment: SMARCA4 HiBiT degradation assay in HeLa cells. The class given is cell-based. The settings on record: 18 hours incubation; for DC50: read-out: HeLa-HiBit-SM4 DC50; for Dmax: HeLa, read-out: HeLa-HiBit-SM4 Dmax (%). How it is done:
as §1, §2, §3

For `CC(C1CCN(c2ccc3c(c2)C(=O)N(C2CCC(=O)NC2=O)C3=O)CC1)N1CCC(CN2CCN3c4cc(-c5ccccc5O)nnc4NCC3C2)CC1` (stereo in doubt) [Example 160, 2-(2,6-dioxopiperidin-3-yl)-5-[4-[1-[4-[[(10S)-4-(2-hydroxyphenyl)-1,5,6,8,12-pentazatricyclo[8.4.0.02,7]tetradeca-2(7),3,5-trien-12-yl]methyl]piperidin-1-yl]ethyl]piperidin-1-yl]isoindole-1,3-dione], the DC50 on SMARCA2-HiBiT and at SMARCA4-HiBiT was below 10 nM throughout. For the same compound, the Dmax on SMARCA2-HiBiT was 75 to 85%; at SMARCA4-HiBiT, 50 to 75%.

Consider `O=C1CCC(N2C(=O)c3ccc(N4CCC(CN5C[C@@H]6[C@H](C5)[C@H]6CN5CCN6c7cc(-c8ccccc8O)nnc7NC[C@H]6C5)[C@@H](F)C4)cc3C2=O)C(=O)N1` (stereo in doubt) [Example 192, 2-(2,6-dioxopiperidin-3-yl)-5-[(3R,4R)-3-fluoro-4-[[(1S,5R)-6-[[(10S)-4-(2-hydroxyphenyl)-1,5,6,8,12-pentazatricyclo[8.4.0.02,7]tetradeca-2(7),3,5-trien-12-yl]methyl]-3-azabicyclo[3.1.0]hexan-3-yl]methyl]piperidin-1-yl]isoindole-1,3-dione], for which, at SMARCA2-HiBiT, the DC50 is below 10 nM and the Dmax fell in the range of 50 to 75%. Besides, on SMARCA4-HiBiT, the DC50 was below 10 nM and the Dmax is at most 50%.

On to `C[C@H]1CN2c3cc(-c4ccccc4O)nnc3NC[C@H]2CN1C[C@H]1[C@@H]2CN(CC3CCN(c4ccc5c(c4)C(=O)N(C4CCC(=O)NC4=O)C5=O)C[C@@H]3F)C[C@@H]21` (stereo in doubt) [Example 199, 2-(2,6-dioxopiperidin-3-yl)-5-[(3R,4R)-3-fluoro-4-[[(1S,5R)-6-[[(10S,13S)-4-(2-hydroxyphenyl)-13-methyl-1,5,6,8,12-pentazatricyclo [8.4.0.02,7]tetradeca-2(7),3,5-trien-12-yl]methyl]-3-azabicyclo [3.1.0]hexan-3-yl]methyl]piperidin-1-yl]isoindole-1,3-dione], for which, at SMARCA2-HiBiT, the DC50 is below 10 nM and the Dmax is above 85%. Besides, at SMARCA4-HiBiT, the DC50 was below 10 nM and the Dmax lay within 50 to 75%.

In the case of `O=C1CCC(NC(=O)c2ccc(N3CCC(CN4CCC(N5CCN6c7cc(-c8ccccc8O)nnc7NC[C@H]6C5)CC4)CC3)cn2)C(=O)N1` (stereo partly drawn) [Example 24, N-(2,6-dioxopiperidin-3-yl)-5-(4-((4-((S)-2-(2-hydroxyphenyl)-5,6,6a,7,9,10-hexahydro-8H-pyrazino[1′,2′:4,5]pyrazino[2,3-c]pyridazin-8-yl)piperidin-1-yl)methyl)piperidin-1-yl)picolinamide], on SMARCA2-HiBiT, the DC50 is below 10 nM and the Dmax was above 85%. Further, at SMARCA4-HiBiT, the DC50 was below 10 nM and the Dmax lay in the range of 75 to 85%.

On to `CC12CNc3nnc(-c4ccccc4O)cc3N1CCN(C1CCN(CCCc3ccc4c(c3)c3cccnc3n4C3CCC(=O)NC3=O)CC1)C2` (stereo not drawn) [Example 25, 3-(6-(3-(4-(2-(2-hydroxyphenyl)-6a-methyl-5,6,6a,7,9,10-hexahydro-8H-pyrazino[1′,2′:4,5]pyrazino[2,3-c]pyridazin-8-yl)piperidin-1-yl)propyl)-9H-pyrido[2,3-b]indol-9-yl)piperidine-2,6-dione], for which, at SMARCA2-HiBiT, the DC50 was below 10 nM and the Dmax is above 85%. Further, on SMARCA4-HiBiT, the DC50 was below 10 nM and the Dmax was in the range of 75 to 85%.

On to `O=C1CCC(n2ccc3cc(N4CCC(CN5CCC(N6CCN7c8cc(-c9ccccc9O)nnc8NC[C@H]7C6)CC5)CC4)ccc3c2=O)C(=O)N1` (stereo partly drawn) [Example 26, 3-(6-(4-((4-((S)-2-(2-hydroxyphenyl)-5,6,6a,7,9,10-hexahydro-8H-pyrazino [1′,2′:4,5]pyrazino[2,3-c]pyridazin-8-yl)piperidin-1-yl)methyl)piperidin-1-yl)-1-oxoisoquinolin-2(1H)-yl)piperidine-2,6-dione], for which, on SMARCA2-HiBiT, the DC50 is below 10 nM and the Dmax is above 85%. Besides, on SMARCA4-HiBiT, the DC50 is below 10 nM and the Dmax is above 85%.

With `O=C1CCC(n2c3ccc(CCCN4CCC(N5CCN(C6C[C@@H]7CNc8nnc(-c9ccccc9O)cc8N7C6)CC5)CC4)cc3c3cccnc32)C(=O)N1` (stereo partly drawn) [Example 27, 3-(6-(3-(4-(4-((6aR)-2-(2-hydroxyphenyl)-5,6,6a,7,8,9-hexahydropyrrolo [1′,2′:4,5]pyrazino[2,3-c]pyridazin-8-yl)piperazin-1-yl)piperidin-1-yl)propyl)-9H-pyrido[2,3-b]indol-9-yl)piperidine-2,6-dione], at SMARCA2-HiBiT, the DC50 is below 10 nM and the Dmax is 50 to 75%. At SMARCA4-HiBiT, the DC50 was below 10 nM and the Dmax is 50 to 75%.

With `C[C@H]1CN2c3cc(-c4ccccc4O)nnc3NC[C@H]2CN1CC1CCN(CC2CCN(c3ccc4c(c3)C(=O)N(C3CCC(=O)NC3=O)C4=O)CC2)CC1` (stereo partly drawn) [Example 28, 2-(2,6-dioxopiperidin-3-yl)-5-(4-((4-(((6aS,9S)-2-(2-hydroxyphenyl)-9-methyl-5,6,6a,7,9,10-hexahydro-8H-pyrazino[1′,2′:4,5]pyrazino[2,3-c]pyridazin-8-yl)methyl)piperidin-1-yl)methyl)piperidin-1-yl) isoindoline-1,3-dione], at SMARCA2-HiBiT, the DC50 is below 10 nM and the Dmax is above 85%. In addition, on SMARCA4-HiBiT, the DC50 is below 10 nM and the Dmax lay within 75 to 85%.

On to `CN(C1CCN(CC2CCN(c3ccc4c(c3)C(=O)N(C3CCC(=O)NC3=O)C4=O)CC2)CC1)C1C[C@@H]2CNc3nnc(-c4ccccc4O)cc3N2C1` (stereo partly drawn) [Example 29, 2-(2,6-dioxopiperidin-3-yl)-5-(4-((4-(((6aR)-2-(2-hydroxyphenyl)-5,6,6a,7,8,9-hexahydropyrrolo[1′,2′:4,5]pyrazino[2,3-c]pyridazin-8-yl)(methyl)amino)piperidin-1-yl)methyl)piperidin-1-yl) isoindoline-1,3-dione], for which, on SMARCA2-HiBiT, the half-maximal degradation concentration (DC50) was below 10 nM and the Dmax was above 85%. In addition, on SMARCA4-HiBiT, the DC50 was below 10 nM and the Dmax is above 85%.

`O=C1CCC(N2C(=O)c3ccc(N4CCC(CN5CCC(N6CCN7c8cc(-c9ccccc9O)nnc8NC[C@H]7C6)CC5)CC4)cc3C2=O)C(=O)N1` (stereo partly drawn) [Example 30, 2-(2,6-dioxopiperidin-3-yl)-5-(4-((4-((S)-2-(2-hydroxyphenyl)-5,6,6a,7,9,10-hexahydro-8H-pyrazino[1′,2′:4,5]pyrazino[2,3-c]pyridazin-8-yl)piperidin-1-yl)methyl)piperidin-1-yl)isoindoline-1,3-dione]: the DC50 on SMARCA2-HiBiT and at SMARCA4-HiBiT was below 10 nM in each case. The maximal degradation (Dmax) at SMARCA2-HiBiT and on SMARCA4-HiBiT was above 85% each time.

Regarding `O=C1CCC(N2C(=O)c3ccc(N4CCC(CN5CCC(CN6CCN7c8cc(-c9ccccc9O)nnc8NC[C@H]7C6)CC5)CC4)cc3C2=O)C(=O)N1` (stereo partly drawn) [Example 31, 2-(2,6-dioxopiperidin-3-yl)-5-(4-((4-(((S)-2-(2-hydroxyphenyl)-5,6,6a,7,9,10-hexahydro-8H-pyrazino[1′,2′:4,5]pyrazino[2,3-c]pyridazin-8-yl)methyl)piperidin-1-yl)methyl)piperidin-1-yl)isoindoline-1,3-dione], on SMARCA2-HiBiT, the DC50 was below 10 nM and the Dmax is above 85%. At SMARCA4-HiBiT, the DC50 was below 10 nM and the Dmax was above 85%.

`CC(C1CCN(CC2CCN(c3ccc4c(c3)C(=O)N(C3CCC(=O)NC3=O)C4=O)CC2)CC1)N1CCN2c3cc(-c4ccccc4O)nnc3NC[C@H]2C1` (stereo partly drawn) [Example 32, 2-(2,6-dioxopiperidin-3-yl)-5-(4-((4-(1-((S)-2-(2-hydroxyphenyl)-5,6,6a,7,9,10-hexahydro-8H-pyrazino[1′,2′:4,5]pyrazino[2,3-c]pyridazin-8-yl)ethyl)piperidin-1-yl)methyl)piperidin-1-yl)isoindoline-1,3-dione]: at SMARCA2-HiBiT, the DC50 is below 10 nM and the Dmax was above 85%. On SMARCA4-HiBiT, the DC50 was below 10 nM and the Dmax was above 85%.
